Laboratory results as given in ChEMBL document CHEMBL1149525, “Synthesis and evaluation of anilinohexafluoroisopropanols as activators/modulators of LXRalpha and beta” (Bioorg Med Chem Lett, 2006).

Columns and labels:
[1] = target: T1, Oxysterols receptor LXR-alpha (Homo sapiens, UniProt Q13133)
T1 sequence (Q13133 whole entry): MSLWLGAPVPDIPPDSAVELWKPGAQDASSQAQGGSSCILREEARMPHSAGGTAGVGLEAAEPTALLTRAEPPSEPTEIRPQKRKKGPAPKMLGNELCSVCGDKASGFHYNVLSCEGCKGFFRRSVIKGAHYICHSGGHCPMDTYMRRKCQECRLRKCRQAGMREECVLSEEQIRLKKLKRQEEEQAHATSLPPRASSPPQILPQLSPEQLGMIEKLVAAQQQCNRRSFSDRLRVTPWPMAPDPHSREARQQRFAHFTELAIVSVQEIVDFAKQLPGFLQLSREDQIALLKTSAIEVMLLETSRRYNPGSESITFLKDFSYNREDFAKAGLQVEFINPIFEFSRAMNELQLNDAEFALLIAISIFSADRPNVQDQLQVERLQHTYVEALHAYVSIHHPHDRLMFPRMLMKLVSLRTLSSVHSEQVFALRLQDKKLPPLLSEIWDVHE

[2] = target: T1, Oxysterols receptor LXR-alpha; remark: listed apart in the source
Mus musculus [3] = experiment: Increase in plasma triglyceride level in C57BL/6J mouse after 5 days at 100 mg/kg/day relative to control; format: functional
Mus musculus [4] = experiment: Increase in liver triglyceride level in C57BL/6J mouse after 5 days at 100 mg/kg/day relative to control; format: functional
[5] = Plasma concentration in C57BL/6J mouse after 5 days at 100 mg/kg/day; format: ADME, organism-based
[6] = Liver concentration in C57BL/6J mouse after 5 days at 100 mg/kg/day; format: ADME, organism-based; details: read-out: Drug uptake
Mus musculus [7] = experiment: Increase in plasma HDL-C level in C57BL/6J mouse after 5 days at 100 mg/kg/day relative to control; format: functional
[8] = target: T2, Oxysterols receptor LXR-beta (Homo sapiens, UniProt P55055)
[9] = target: T2, Oxysterols receptor LXR-beta; remark: listed apart in the source
Mus musculus [10] = experiment: Decrease in plasma triglyceride level in C57BL/6J mouse after 5 days at 100 mg/kg/day relative to control; format: functional; set-up: scale not given: the % may be the effect or the level left
Mus musculus [11] = experiment: Decrease in plasma triglyceride level in C57BL/6J mouse after 5 days at 10 mg/kg/day relative to control; format: functional; set-up: scale not given: the % may be the effect or the level left
Mus musculus [12] = experiment: Increase in liver triglyceride level in C57BL/6J mouse after 5 days at 10 mg/kg/day relative to control; format: functional
[13] = Plasma concentration in C57BL/6J mouse after 5 days at 10 mg/kg/day; format: ADME, organism-based
Mus musculus [14] = experiment: Increase in plasma HDL-C level in C57BL/6J mouse after 5 days at 10 mg/kg/day relative to control; format: functional
[15] = Liver concentration in C57BL/6J mouse after 5 days at 10 mg/kg/day; format: ADME, organism-based; details: read-out: Drug uptake

T2 sequence (P55055 whole entry): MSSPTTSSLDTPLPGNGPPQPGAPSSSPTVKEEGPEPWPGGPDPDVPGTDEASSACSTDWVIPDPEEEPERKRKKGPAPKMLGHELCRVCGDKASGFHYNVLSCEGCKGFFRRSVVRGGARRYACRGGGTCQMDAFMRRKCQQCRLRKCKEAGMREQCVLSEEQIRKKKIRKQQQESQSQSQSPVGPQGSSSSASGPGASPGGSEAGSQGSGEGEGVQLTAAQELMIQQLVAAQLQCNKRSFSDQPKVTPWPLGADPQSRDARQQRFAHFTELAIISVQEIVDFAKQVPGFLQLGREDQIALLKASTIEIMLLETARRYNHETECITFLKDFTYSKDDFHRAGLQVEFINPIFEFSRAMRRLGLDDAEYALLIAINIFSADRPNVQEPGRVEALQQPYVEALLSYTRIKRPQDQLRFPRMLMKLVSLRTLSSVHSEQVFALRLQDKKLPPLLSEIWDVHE

IC50 [1] [nM] | EC50 [2] [nM] | SMILES | also measured
1 | 100 | OC(c1ccc(N(Cc2ccccc2)CC(F)(F)F)c(Cl)c1)(C(F)(F)F)C(F)(F)F | –
600 | 3300 | CCN(Cc1cscn1)c1ccc(C(O)(C(F)(F)F)C(F)(F)F)cc1 | –
60 | 90 | COC(=O)C1(c2ccccc2)CCCCN1c1ccc(C(O)(C(F)(F)F)C(F)(F)F)cc1 (racemic) | –
11200 | 10900 | CCN(c1ccc(C(O)(C(F)(F)F)C(F)(F)F)cc1)C(C(=O)NC)c1ccccc1 (racemic) | –
13 | 700 | Cc1oc(-c2cccc(C(F)(F)F)c2)nc1CN(CC(F)(F)F)c1ccc(C(O)(C(F)(F)F)C(F)(F)F)cc1 | –
5200 | 9400 | CCN(c1ccc(C(O)(C(F)(F)F)C(F)(F)F)cc1)C(C(=O)O)c1ccccc1 (racemic) | –
50 | 300 | CCN(c1ccc(C(O)(C(F)(F)F)C(F)(F)F)cc1)C(CC)(C(=O)OC)c1ccccc1 (racemic) | –
12000 | > 40000 | CCN(c1ccc(C(O)(C(F)(F)F)C(F)(F)F)cc1)C(COCCO)c1ccccc1 (racemic) | –
61000 | 10000 | CCN(c1ccc(C(O)(C(F)(F)F)C(F)(F)F)cc1)C(COCC(=O)O)c1ccccc1 (racemic) | –
200 | 400 | CCN(c1ccc(C(O)(C(F)(F)F)C(F)(F)F)cc1)C(C)(C(=O)N(C)C)c1ccccc1 (racemic) | –
3 | 200 | CCN(Cc1ccccc1)c1ccc(C(O)(C(F)(F)F)C(F)(F)F)cc1Cl | Activity (Mus musculus [3]): 7%; Activity (Mus musculus [4]): 28%; concentration at 120 h [5]: 3400 ng/mL; concentration at 120 h [6]: 13000 ng/g; Activity (Mus musculus [7]): 23%; IC50 [8]: 3 nM; EC50 [9]: 80 nM
600 | 2200 | CCN(c1ccc(C(O)(C(F)(F)F)C(F)(F)F)cc1)C(COCC(=O)OC)c1ccccc1 (racemic) | –
2700 | 4300 | CCN(Cc1cccnc1)c1ccc(C(O)(C(F)(F)F)C(F)(F)F)cc1 | –
30 | 1000 | Cc1oc(-c2cccc(Cl)c2)nc1CN(CC(F)(F)F)c1ccc(C(O)(C(F)(F)F)C(F)(F)F)cc1 | –
6 | 800 | CCN(CCc1ccccc1)c1ccc(C(O)(C(F)(F)F)C(F)(F)F)cc1Cl | –
400 | 900 | CCN(c1ccc(C(O)(C(F)(F)F)C(F)(F)F)cc1)C(COC)c1ccccc1 (racemic) | –
1500 | 700 | CCN(Cc1ccccn1)c1ccc(C(O)(C(F)(F)F)C(F)(F)F)cc1 | –
50 | 100 | CCN(c1ccc(C(O)(C(F)(F)F)C(F)(F)F)cc1)C(C)(C(=O)OC)c1ccccc1 (racemic) | Activity (Mus musculus [10]): 11%; Activity (Mus musculus [4]): 520%; concentration at 120 h [5]: 2300 ng/mL; concentration at 120 h [6]: 6300 ng/g; Activity (Mus musculus [7]): 12%; IC50 [8]: 8 nM; EC50 [9]: 30 nM
900 | 800 | CCN(c1ccc(C(O)(C(F)(F)F)C(F)(F)F)cc1)C(COCC(=O)N(C)C)c1ccccc1 (racemic) | –
60 | 4500 | CCN(c1ccc(C(O)(C(F)(F)F)C(F)(F)F)cc1Cl)C(COc1ccc(CCC(=O)O)cc1)c1ccccc1 (racemic) | –

IC50 [1] [nM] | EC50 [2] [nM] | SMILES | also measured
2 | 300 | CCN(Cc1nc(-c2cccc(Cl)c2)oc1C)c1ccc(C(O)(C(F)(F)F)C(F)(F)F)cc1Cl | –
100 | 5500 | CCN(c1ccc(C(O)(C(F)(F)F)C(F)(F)F)cc1Cl)C(COc1ccc(CC(=O)O)cc1)c1ccccc1 (racemic) | –
20 | 500 | CCN(Cc1cscn1)c1ccc(C(O)(C(F)(F)F)C(F)(F)F)cc1Cl | –
6 | 200 | CCN(Cc1nc(-c2cccc(C(F)(F)F)c2)oc1C)c1ccc(C(O)(C(F)(F)F)C(F)(F)F)cc1 | Activity (Mus musculus [11]): 12%; Activity (Mus musculus [12]): 70%; concentration at 120 h [13]: 700 ng/mL; Activity (Mus musculus [14]): 35%; concentration at 120 h [15]: 8200 ng/g; IC50 [8]: 3 nM; EC50 [9]: 60 nM
700 | 2300 | CCN(c1ccc(C(O)(C(F)(F)F)C(F)(F)F)cc1)C(C(=O)OC)c1ccccc1 (racemic) | –
60 | 700 | CCN(c1ccc(C(O)(C(F)(F)F)C(F)(F)F)cc1Cl)C(COc1ccc(C(=O)OC)cc1)c1ccccc1 (racemic) | –
5400 | 8500 | CCN(c1ccc(C(O)(C(F)(F)F)C(F)(F)F)cc1)C(C(=O)N1CCOCC1)c1ccccc1 (racemic) | –
50 | 1100 | CCN(Cc1ccccc1)c1ccc(C(O)(C(F)(F)F)C(F)(F)F)cc1 | –
100 | 1400 | CCN(c1ccc(C(O)(C(F)(F)F)C(F)(F)F)cc1Cl)C(COc1ccc(CCC(=O)OC)cc1)c1ccccc1 (racemic) | –
18000 | > 40000 | CCN(c1ccc(C(O)(C(F)(F)F)C(F)(F)F)cc1)C(COCC(=O)NC)c1ccccc1 (racemic) | –
100 | 3700 | CCN(c1ccc(C(O)(C(F)(F)F)C(F)(F)F)cc1Cl)C(COc1ccc(C(=O)O)cc1)c1ccccc1 (racemic) | –
1700 | 2100 | CCN(Cc1ccncc1)c1ccc(C(O)(C(F)(F)F)C(F)(F)F)cc1 | –
60 | 500 | CCN(c1ccc(C(O)(C(F)(F)F)C(F)(F)F)cc1Cl)C(CC)(C(=O)OC)c1ccccc1 (racemic) | –
200 | 1900 | CCN(c1ccc(C(O)(C(F)(F)F)C(F)(F)F)cc1)C(COCc1ccccc1)c1ccccc1 (racemic) | –
120 | 1000 | CCN(CCc1ccccc1)c1ccc(C(O)(C(F)(F)F)C(F)(F)F)cc1 | –
200 | 1100 | CCN(c1ccc(C(O)(C(F)(F)F)C(F)(F)F)cc1Cl)C(COc1ccc(CC(=O)OC)cc1)c1ccccc1 (racemic) | –
70 | 900 | OC(c1ccc(N(Cc2ccccc2)CC(F)(F)F)cc1)(C(F)(F)F)C(F)(F)F | –
6 | 100 | CCN(Cc1nc(-c2cccc(C(F)(F)F)c2)oc1C)c1ccc(C(O)(C(F)(F)F)C(F)(F)F)cc1Cl | –
13800 | 9300 | CCN(c1ccc(C(O)(C(F)(F)F)C(F)(F)F)cc1)C(C(=O)N(C)C)c1ccccc1 (racemic) | –
50 | 200 | COC(=O)C1(c2ccccc2)CCCN1c1ccc(C(O)(C(F)(F)F)C(F)(F)F)cc1 (racemic) | –
